Laboratory results: patent US6986997B1, “Method for screening using an OAT1 transporter protein” (Fuji Bio Medix Co., Ltd., priority 1997, dated 2006)
Where two headings read alike, the source gives them in different places.

Key:
[1] = target: T1, rat OAT1 (Rattus norvegicus, UniProt O35956); assay: Uptake of radio labeled substances into oocytes expressing OAT1; type: cell-based
T1 construct: with full-length OAT1 cDNA labeled with; expressed in transfected cells; host or cells: Xenopus laevis oocytes injected with in vitro transcribed cRNA
T1 sequence (O35956 1-551): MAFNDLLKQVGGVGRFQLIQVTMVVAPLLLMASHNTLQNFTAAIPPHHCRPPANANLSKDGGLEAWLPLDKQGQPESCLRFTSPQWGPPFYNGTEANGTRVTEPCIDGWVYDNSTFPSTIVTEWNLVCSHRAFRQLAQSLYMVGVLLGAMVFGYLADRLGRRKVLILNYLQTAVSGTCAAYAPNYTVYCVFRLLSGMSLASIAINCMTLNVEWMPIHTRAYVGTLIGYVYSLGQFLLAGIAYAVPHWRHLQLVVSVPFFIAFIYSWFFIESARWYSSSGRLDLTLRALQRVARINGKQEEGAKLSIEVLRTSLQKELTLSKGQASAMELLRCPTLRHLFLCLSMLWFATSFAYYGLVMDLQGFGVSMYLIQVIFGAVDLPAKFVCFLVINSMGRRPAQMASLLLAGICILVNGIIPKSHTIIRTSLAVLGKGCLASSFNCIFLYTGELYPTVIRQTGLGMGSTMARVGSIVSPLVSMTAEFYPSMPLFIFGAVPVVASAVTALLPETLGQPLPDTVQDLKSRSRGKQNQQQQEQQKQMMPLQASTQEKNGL
From the text: Several radio labeled compounds were examined whether they are taken up into oocytes via OAT1.
Control oocytes were those which were not injected with cRNA.

[2] = target: T1, rat OAT1; assay: Cis-inhibition of 14C-PAH uptake in oocytes injected with rat OAT1 cRNA; type: cell-based; settings: 2 μM 14C-PAH, 2 mM non-labeled substance, ND96 solution; for inhibition at 1 h, 2 mM: rat, oocytes injected with rat OAT1 cRNA, probe 14C-PAH (p-aminohippurate), read-out: inhibition of OAT1-mediated 14C-PAH uptake
[3] = test system: basolateral organic anion transport system; settings: Ullrich and Rumrich, Am. J. Physiol. 254, F453-462, 1988; read-out: Km value previously reported for the basolateral organic anion transport system; cited from earlier work
[4] = versus control oocytes not injected with cRNA

| Compound | transport of radio labeled substance into oocytes expressing OAT1 [1, 4] | cis-inhibitory effect on OAT1-mediated 14C-PAH uptake (in words) [2] | inhibition at 1 h, 2 mM [2] | also measured |
| --- | --- | --- | --- | --- |
| CC[N+](CC)(CC)CC [^14C-TEA, tetraethylammonium, reference compound] | not detected | – | – | – |
| C[C@H](CCC(=O)NCCS(=O)(=O)O)[C@H]1CC[C@H]2[C@@H]3[C@H](O)C[C@@H]4C[C@H](O)CC[C@]4(C)[C@H]3C[C@H](O)[C@]12C [^3H-taurocholic acid, taurocholic acid] | – | – | – | transport of radio labeled substance into oocytes expressing OAT1 [1]: not detected |
| Nc1ccc(C(=O)NCC(=O)O)cc1 [PAH, para-aminohippurate] | – | – | – | Km [3]: 80 µM |
| Nc1ncnc2c1ncn2[C@@H]1O[C@@H]2COP(=O)(O)O[C@H]2[C@H]1O [cyclic-AMP] | – | inhibited | – | transport of radio labeled substance into oocytes expressing OAT1 [1]: transported |

The next lines start with results.

| transport of radio labeled substance into oocytes expressing OAT1 [1, 4] | cis-inhibitory effect on OAT1-mediated 14C-PAH uptake (in words) [2] | inhibition at 1 h, 2 mM [2] | Compound | also measured |
| --- | --- | --- | --- | --- |
| transported | inhibited | – | Nc1nc2c(ncn2[C@@H]2O[C@@H]3COP(=O)(O)O[C@H]3[C@H]2O)c(=O)[nH]1 [cyclic-GMP] | – |
| transported | inhibited | – | O=c1[nH]c(=O)c2[nH]c(=O)[nH]c2[nH]1 [uric acid] | – |
| – | – | > 85% | COc1ccc2c(c1)c(CC(=O)O)c(C)n2C(=O)c1ccc(Cl)cc1 [indomethacin] | – |
| – | – | > 85% | CCn1cc(C(=O)O)c(=O)c2ccc(C)nc21 [nalidixic acid] | – |
| – | – | > 85% | CCCC(CCC)C(=O)O [valproic acid] | – |
| – | – | > 85% | C=C(CC)C(=O)c1ccc(OCC(=O)O)c(Cl)c1Cl [ethacrynic acid] | – |
